Read-outs that look alike come from different tables or passages of the source.
Legend:
[1] = test system: intimal thickening of BN orthotopic femoral arterial grafts; settings: oral 10 mg/kg/day; cited from earlier work
[2] = test system: anti-donor specific IgM and IgG; assay: anti-donor specific IgM and IgG titers by flow cytometry, cardiac xenografts; type: in vivo, rat; settings: leflunomide alone
Experimental: Serum samples were obtained from the animals by drawing 0.2 ml of blood from the tail vein at two day intervals, for the first eight days after transplantation, and then at seven day intervals after day 14. Serum samples were stored at -80° C. The anti-donor specific IgM and IgG titers were measured using cervical lymph nodes from hamsters as target cells for flow cytometry. Lymphocytes obtained from the lymph nodes were washed with PBS and suspended at a concentration of 10^7 cells/ml. Aliquots of 50 μl containing ~5×10^5 lymphocytes were incubated with 50 μl of diluted sera (diluted 1:25 in phosphate buffered saline) for 30 minutes at 4° C. and then washed twice in 1 ml of PBS. IgM and IgG antibodies were stained by incubating the washed cells for 30 minutes at 4° C. with 50 μl of PBS containing a mixture of labeled goat antibodies specific for rat IgG and rat IgM (Jackson Immunoresearch Labs, Westgrove, Pa.). After staining, the cells were washed twice, fixed in 1% formalin and analyzed on the BPICS-C flow cytometry (Coulter Company), according to Williams et al., Transplantation, 57:1223-1231 (1994).

[3] = test system: SLE in MRL/lpr mice; settings: cited from earlier work
[4] = test system: cardiac allograft; settings: cited from earlier work
[5] = test system: cardiac allografts, established acute rejection; settings: cited from earlier work; for mean survival time of the cardiac allografts: 7 days
[6] = test system: heterotopic small intestinal transplantation; settings: continuous infusion pump, cited from earlier work
[7] = test system: xenophile antibodies to human peripheral blood lymphocytes (PBL); settings: cited from earlier work
[8] = test system: intimal thickening in balloon-injured carotids; settings: 20 mg/kg daily from day 3 pre-transplant to day 13 post-transplant; cited from earlier work
[9] = test system: rejection of concordant hamster to rat cardiac xenografts; assay: hamster to rat concordant cardiac xenograft rejection; type: in vivo, Golden Syrian hamster donor, Lewis (LEW) rat recipient
From the text: The fundamental design of this experiment was to determine a dose response curve using leflunomide as monotherapy, CsA as monotherapy, and both used as combination therapy. End points used to assess efficacy were duration of time to rejection, mortality, histologic differences among the treatment groups, and donor specific antibody responses.
Male LEW rats weighing approximately 200 grams and male Golden Syrian hamsters weighing approximately 150 grams (Harlan, Sprague, Dawley, Indianapolis, Ind.) were allowed five to ten days of acclimatization before surgery was performed. Ketamine-xylazine anesthesia was used in all animals and food and water were freely allowed post-operatively.
Heart transplantation was performed according to the technique of Ono et al., Cardiovasc. […] Cardiac xenograft survival was determined by daily palpation, and rejection was considered complete when the impulse was undetectable. CsA, in its intravenous form (Sandimmune, Sandoz Corporation, East Hanover, N.J.) was administered daily by intramuscular injection to the rat hind limbs. Leflunomide (HWA-486, Hoechst AG, Germany) suspended in 1% carboxymethylcellulose was administered by gavage daily. Immunosuppression therapy was started on the day of surgery unless otherwise specified.
The transplanted animals were assigned to one control group and twelve treatment groups, with dosing at 2.5, 5, 10, 15 and 20 mg/kg of leflunomide, and 10 and 20 mg/kg of CsA. In two groups CsA was kept at 10 mg/kg while leflunomide was dosed at 5 or 10 mg/kg. Three additional treatment groups were included in which leflunomide monotherapy was started seven days before transplantation, or two or three days after transplantation.
The graft heart was excised after cessation of heart beat. Part of the heart was snap frozen in liquid nitrogen and stored at -70° C.; the remainder was fixed in formalin and stained with hematoxylin and eosin to determine pathological changes. The frozen tissue was stained for IgM and IgG deposition using ABC Technique according to Hsu et al., J. Histochem. Cytochem., 29:577 (1981).

[10] = test system: cytotoxic antibody; assay: complement-mediated cytotoxicity assay, cardiac xenografts; type: in vivo, rat; settings: leflunomide therapy
[11] = test system: proteoglycan-induced arthritis; settings: BALB/c mouse; cited from earlier work
[12] = Lef 15 mg/kg, day began 0, group 5, listed as Lef

Cc1oncc1C(=O)Nc1ccc(C(F)(F)F)cc1 [leflunomide, N-(4-trifluoromethylphenyl)-5-methylisoxazol-4-carboxamide]
intimal thickening [1]: reduced intimal thickening compared to untreated controls | IgG levels [2]: IgG levels remained at baseline | IgM titres [2]: delayed and slowed the rise of IgM titres, but did not completely suppress IgM rise | ability to inhibit SLE relative to Cyclosporine A ([3]; MRL/lpr mice): equal or superior to Cyclosporine A (CsA) in ability to inhibit SLE | disease progression, lymphocyte accumulation, T-cell ratio ([3]; MRL/lpr mice): stops disease progression and prevents the development of glomerulonephritis | disease progression, lymphocyte accumulation, T-cell ratio ([3]; MRL/lpr mice, listed as Leflunomide): suppresses the intense accumulation of lymphocytes in the lymph nodes and spleen of these mice, restores the T-cell helper/suppressor ratio to normal values, and restores the depressed proliferative response of lymphocytes and macrophages | animals still alive ([3]; at the end of 10 weeks, mice with elevated urine protein): 90% | graft survival vs controls ([4]; 0.63 to 10 mg/kg/day for 7 days): significantly prolonged graft survival compared to controls | animals with indefinite graft survival (>100 days) ([4]; 21 days, leflunomide 5 mg/kg/day): three of six animals | prolongation of survival ([5]; 5 mg/kg by gavage, 7- or 14-day course from day of transplantation): approximately equal prolongations of survival | mononuclear leukocyte infiltration ([5]; started at day 4): completely cleared the mononuclear leukocyte infiltration on histological analysis | mean survival time of the cardiac allografts ([5]; started at day 4 post-transplantation): 25.4±1.4 days | mean survival time of the cardiac allografts ([5]; started at day 6 post-transplantation): 16.3±8.5 days | allospecific IgG response ([5]; started day 4): The generation of allospecific IgG response was inhibited | allospecific cytotoxic antibody production (primarily IgM) ([5]; started day 4): abrupt drop to near background levels after 7 days of treatment | reversal of acute rejection ([5]; therapy post-transplantation): effective in reversing acute rejection as determined by both functional and histological criteria | survival of recipients ([6]; 7 days): 29.3 ± 13.8 days | survival of recipients ([6]; 14 days): 38.8 ± 11.5 days | pre-existing, natural xenophile antibodies ([7]; 10 mg/kg/day for 10 days): decrease in pre-existing, natural xenophile antibodies | xenophile antibody production ([7]; 3 or 10 mg/kg/day from day -4 to day +10, sensitized rats): inhibited xenophile antibody production in a dose-dependent manner | intimal thickening [8]: significantly reduced intimal thickening in balloon-injured carotids | graft histology ([9]; 2.5 mg/kg leflunomide, rejected grafts): Interstitial hemorrhage, focal vascular thrombosis and myocardial necrosis with sparse polymorphonuclear cellular infiltration | graft histology ([9]; 5.0 mg/kg leflunomide, rejected grafts): Interstitial hemorrhage, focal vascular thrombosis and myocardial necrosis with sparse polymorphonuclear cellular infiltration | graft histology ([9]; 15 mg/kg leflunomide monotherapy, long-term grafts): myocardial fibrosis, moderate mononuclear cell infiltration and arterial thickening, consistent with chronic rejection | Mean Survival ± SD ([9]; Lef 2.5 mg/kg, day began 0, group 2): 5.0 ± 0.6 days | Mean Survival ± SD ([9]; Lef 5 mg/kg, day began 0, group 3): 7.7 ± 2.5 days | Graft Survival for Each Subject ([9]; Lef 5 mg/kg, day began 0, group 3, listed as Lef): 8,14 days | Mean Survival ± SD ([9]; Lef 10 mg/kg, day began 0, group 4): 52.0 ± 20.2 days | Mean Survival ± SD ([9]; Lef 10 mg/kg, day began +2, group 12): 58.0 ± 13.7 days | Graft Survival for Each Subject ([9]; Lef 10 mg/kg, day began +2, group 12, listed as Lef): 76,77 days | Mean Survival ± SD ([9]; Lef 10 mg/kg, day began +3, group 13): 3.7 ± 0.5 days | Mean Survival ± SD ([9]; Lef 10 mg/kg, day began -7, group 11): 64.0 ± 13.3 days | Mean Survival ± SD ([9]; Lef 15 mg/kg, day began 0, group 5): 76.5 ± 21 days | Graft Survival for Each Subject [9, 12]: 100,105 days | Mean Survival ± SD [9, 12]: 76.5 ± 21.1 days | Mean Survival ± SD ([9]; Lef 20 mg/kg, day began 0, group 6): 58.9 ± 28.1 days | Graft Survival for Each Subject ([9]; Lef 20 mg/kg, day began 0, group 6, listed as Lef): 100 days | time to rejection of the graft ([9]; initiation of leflunomide delayed until day 3, all animals): ≤ 24 h | toxicity ([9]; leflunomide 20 mg/kg): lethal toxicity appeared | optimal dose ([9]; leflunomide monotherapy): 15 mg/kg | control of xenograft rejection ([9]; leflunomide monotherapy, high doses causing toxicity): unable to totally control xenograft rejection | minimal effective dose ([9]; leflunomide monotherapy, read-out: dose at which graft survival exceeded that of untreated controls): 10 mg/kg | effect of start time on length of graft survival ([9]; leflunomide started seven days before or two days after transplantation): no significant effect on length of graft survival | cytotoxic antibody titres [10]: prevented or reversed the cytotoxic antibody titres | effect on arthritis [11]: suppresses acute inflammation and protects animals from new inflammatory episodes or acute exacerbation of chronically inflamed joints
